{"source": "patent US20090285836A1", "about": "(NEREUS PHARMACEUTICALS, INC., priority 2008, published 2009)", "key": {"[1]": {"tested_on": "YY1", "test": "YY1 promoter luciferase reporter and YY1 expression", "assay_type": "cell-based", "conditions": "pYY1-luciferase reporter (FIG. 11A)", "excerpt": "TRAIL is produced by immune cells, and is a ligand for death receptors DR4, DR5, DcR1, and DcR2. […] Controls included untransfected (UNT) and DMSO. […] RKIP may have a direct role in the NPI-0052-induced sensitization to TRAIL. […] RKIP overexpression results in DR5 upregulation and cell sensitization to TRAIL-mediated apoptosis. YY1 acts as a suppressor of DR5 transcription and is positively regulated by NF-κB. […] Transfection controls include medium only and siRNA negative control. YY1 has a direct role in tumor sensitization to TRAIL apoptosis. […] Controls include transfected with the YY1-lucificerase reporter construct only, and cells treated with 10 μg/ml DHMEQ only. […] CMV-RKIP inhibited both mRNA transcription and protein expression of YY1. YY1 is inhibited by RKIP overexpression via NF-κB down-regulation."}, "[2]": {"tested_on": "RKIP", "test": "RKIP expression (RT-PCR, Western blot)", "conditions": "DU-145, 5 or 10 μg/ml DHMEQ, 24 h, Western blot (FIG. 21D)", "experimental": "RKIP transcript levels were determined by RT-PCR for each time point tested (0-12 h). Normalized mRNA values were derived by dividing the mRNA value of each target gene with the corresponding quantity of GAPDH mRNA. Statistical analysis was performed using the Mann-Whitney U test. P values: treated vs untreated cells. The data represent the mean values±SEM from three independent experiments. […] Protein levels were also determined. Protein lysates were harvested at various time points and subjected to Western Blot analysis for RKIP protein. Actin was used as an internal control for loading. Blots are representative of three independent and reproducible experiments.\n(§4) DU-145 cells were treated with 5 or 10 μg/ml DHMEQ and protein lysates were harvested 24 h after treatment for RKIP and Snail protein determination by Western blot."}, "[3]": {"tested_on": "Snail", "test": "Snail expression (RT-PCR, Western blot)", "conditions": "DU-145, 5 or 10 μg/ml DHMEQ, 24 h, Western blot (FIG. 21D)", "experimental": "as §4"}, "[4]": {"tested_on": "DU-145 cells", "test": "drug titration, trypan blue exclusion assay", "assay_type": "cell-based, human"}, "[5]": {"tested_on": "HCT-116 human colon carcinoma", "conditions": "cited from earlier work"}, "[6]": {"tested_on": "National Cancer Institute's 60-cell-line panel", "conditions": "cited from earlier work"}, "[7]": {"tested_on": "SF-539 CNS cancer", "conditions": "read-out: LC50; cited from earlier work"}, "[8]": {"tested_on": "SK-MEL-28 melanoma", "conditions": "read-out: LC50; cited from earlier work"}, "[9]": {"tested_on": "MDA-MB-435 breast cancer", "conditions": "read-out: LC50; cited from earlier work"}, "[10]": {"conditions": "single agent, mice models; cited from earlier work"}, "[11]": {"tested_on": "human colony-forming assays", "conditions": "single agent; cited from earlier work"}, "[12]": {"tested_on": "DU-145 cells", "test": "in vitro cell migration assay", "assay_type": "cell-based, human", "conditions": "DU-145, 100 ng/ml TNF-α", "method": "(§1) The functional significance of the NPI-0052-induced changes in the expression profiles of the above metastasis-related gene products was expected to be reflected in the migratory and invasive cell properties.\n(§2) In vitro cell invasion and migration assays were performed using the 24/well BD Biocoat 3 micron migration chambers or 8 micron Matrigel invasion chambers (Becton Dickinson Labware, Bedford, Mass.), respectively, according to manufacturer's instructions. For both assays, cells were starved for 4-5 h prior to setting up the assay by adding basal medium supplemented with 0.1% BSA. RPMI 1640 medium containing 10% serum was used as chemoatractant. […] Data were expressed as the fold cell migration derived from the mean RFU of cell migration through the membrane towards FBS divided by the mean RFU of cell migration in the absence of FBS. […] Invaded cells through Matrigel were counted under the microscope at 40× magnification. Data were expressed as the percent invasion through the Matrigel Matrix and membrane relative to the migration through the control insert membrane.\n(§3) For migratory assays, 10^5 cells were seeded in the upper chamber, while in the lower chamber RPMI 1640 containing 10% FBS was added. […] Only labeled cells that had migrated through the pores of the membrane were detected. […]"}, "[13]": {"tested_on": "DU-145 cells", "test": "in vitro Matrigel cell invasion assay", "assay_type": "cell-based, human", "conditions": "DU-145, 100 ng/ml TNF-α", "method": "as §1, §2, §3"}}}
{"molecule": "O=C(NC1=CC(=O)[C@H]2O[C@H]2[C@H]1O)c1ccccc1O", "note": "[DHMEQ]", "values": [{"measurement": "YY1 promoter luciferase activity", "setting": "[1]", "result": "inhibited YY1 luciferase activity"}, {"measurement": "RKIP protein", "setting": "[2]", "result": "RKIP induction"}, {"measurement": "Snail protein", "setting": "[3]", "result": "Snail suppression"}]}
{"molecule": "C[C@@]12OC(=O)[C@]1([C@@H](O)[C@@H]1C=CCCC1)NC(=O)[C@@H]2CCCl", "note": "[NPI-0052, Salinosporamide A]", "values": [{"measurement": "ID20 drug concentration (subtoxic concentration)", "setting": "[4]", "result": 50, "unit": "nM"}, {"measurement": "IC50, in vitro cytotoxicity", "setting": "[5]", "result": 0.011, "unit": "µg/mL"}, {"measurement": "LC50 differential between resistant and susceptible cell lines", "setting": "[6]", "result": "greater than 4 log"}, {"measurement": "CC50", "setting": "[7]", "result": "< 10", "unit": "nM"}, {"measurement": "CC50", "setting": "[8]", "result": "< 10", "unit": "nM"}, {"measurement": "CC50", "setting": "[9]", "result": "< 10", "unit": "nM"}, {"measurement": "tolerance in vivo", "setting": "[10]", "result": "good tolerance"}, {"measurement": "toxicity in human colony-forming assays", "setting": "[11]", "result": "limited toxicity"}]}
{"molecule": "TNF-α", "values": [{"measurement": "augmentation of migration compared to untreated cells", "setting": "[12]", "result": "~10", "unit": "fold"}, {"measurement": "augmentation of invasion compared to untreated cells", "setting": "[13]", "result": "~10", "unit": "fold"}]}
